We go through twelve compounds from patent USRE37670E1, “Antiproliferative and neurotrophic molecules” (American Biogenetics Inc., priority 1994, dated 2002).

Series [1] relates to mouse neuro-2a neuroblastoma cells. Briefly: Antiproliferative assay, cell counting after 48 h. In kind it is cell-based. The method, then: Neuro-2a neuroblastoma cells were cultured in 25 cm^2 flasks for 48 hours in the presence of test medium. After 48 hours, cells were observed, photographed and harvested with trypsin for counting using a haemocytometer. Cell number is expressed as percentage mean±SEM (n=3) of control values.
Accordingly, representative cells may be cultured in vitro in the presence of varying concentration of test compound. At an appropriate time, the cells under the different conditions are examined for the appropriate parameter (for example, cell number for antimitotic activity; neurite outgrowth for neurotrophic activity) and the ED50 may be determined.
Antiproliferative and neuroprotective actions should be sufficient to achieve the desired inhibition of mitosis or neuroprotection without serious hetaptotoxic side effects. […] Dose response curves may be determined first in vitro in a relevant animal model to determine ranges of expected therapeutic concentrations in humans. […] Other cell lines, including those of human origin may be used to assesses activity as well.
The mouse neuro-2a neuroblastoma cell line (Klebe and Ruddle, 1969 J. Cell Biol., 43:69A) was cultured in Dulbecco's modified Eagle's medium (DMEM; Flow Laboratories) supplemented with 10% fetal bovine serum (Tissue Culture Services), […] glutamine and 100 μg/ml of gentamicin or 100 units/ml and 100 μg/ml of penicillin/streptomycin antibiotics (Sigma Chemicals). The cells were maintained in a water-humidified atmosphere of 9% CO2at 37° C. Cells were passaged using 0.025% trypsin (Gibco) in DMEM, and were seeded at a density of 1×10^4 cells/cm^2.
Neuro-2a cells were seeded in 25cm^2 flasks (Costar) at a density of 1×10^4 cells/cm^2. Following a recovery period of 24 h, the agent to be examined was added to the cells in a vehicle of dimethyl sulphoxide (DMSO), the volume of which was 0.2% of the total volume of medium bathing the cells. A flask containing the DMSO vehicle alone was employed as control. Following incubation for 48h, cells were examined using an inverted phase contrast microscope (Leitz Diavert) and photographed (Ilford 50ASA film). Cells were then harvested by trypsinization and were counted using a haemocytometer (improved Neubauer model).

Series [2] concerns neuro-2a neuroblastoma cells. Put plainly: Neurite outgrowth / differentiation, scanning electron microscopy. In kind it is cell-based, mouse. Particulars: for neurite outgrowth: 48 hours. Here is the method:
Neuroblastoma cells were cultured in the presence of 2-n-butyl-4-pentynoic acid (1.0 mM, 2 mM); and 2-n-pentyl-pentynoic acid (0.3 mM, 0.5 mM). Test medium was added to cells after 24 hours in culture and maintained as a test medium for 48 hours after which they were fixed in 2.5% glutaraldehyde and […] sodium phosphate buffer overnight at 4° C. Cells were postfixed with osmium tetroxide and prepared for scanning microscopy as described.
The neurotrophic activity associated with valproate and its analogues may be determined based on in vitro indices of differentiation, including inhibition of mitosis, increase in neurite outgrowth, and NCAM expression. For example, the ability to promote neurite outgrowth is correlated with enhanced survival of certain cultured neural cells including embryonic sensory and sympathetic neurons. Proliferating immature neuroblasts, in vitro, have a rounded shape and are loosely adherent to culture surfaces. In the presence of a neurotrophic factor, these cells become more adherent and sprout processes known in the art as neurites. Accordingly, in vitro neurite outgrowth may be used as an assay for determining concentrations of compound in contact with target cells which would be expected to achieve desirable neuroprotecting effects.
Cells which were to be examined by scanning electron microscopy were grown as previously described in 25cm^2 flasks. Following 48 h exposure to the agent, cells were fixed in a solution of 2.5% glutaraldehyde in 0.1M sodium phosphate buffer, pH 7.4, overnight at 4° C. The cells were post-fixed subsequently in phosphate-buffered 1% osmium tetroxide for 1 h at room temperature, washed and were dehydrated gradually for 1 hour using a series of ethanol concentrations stepwise from 20, 40, 60, 80 to a final concentration 100%.
Sections of the base of the tissue culture flask were removed and were critical point dried to minimize shrinkage and cracking. This was achieved by placing the samples in a Polaron critical point dryer and purging the chamber several times with CO2 to remove all traces of ethanol. After 1 h the temperature and pressure were increased to 40° C. and 1200 lbs/in^2, respectively, at which stage the critical point for carbon dioxide had been reached and drying was completed.
Specimens were subsequently removed from the chamber, mounted on stubs suitable for scanning electron microscopy using conductive carbon cement (Neubauer) and were sputter coated with gold under vacuum (5×10^−2 torr) in the presence of argon gas at a current of 20 mA for 3 minutes (Polaron E5100). Following gold-coating, samples were examined in the scanning electron microscope (JEOL 35C) at an accelerating voltage of 15 kV.

Series [3] is described as follows: Teratogenic activity. Conditions: in vivo. The text has this: Nau, H. et al., Pharmacol. & Toxicol. (1991) 69:310-321.
The conditions of series [4]: literature; cited from earlier work.
Series [5] concerns Neural Cell Adhesion Molecule (NCAM) in neuro-2a neuroblastoma cells. Briefly: NCAM immunofluorescence microscopy. In kind it is cell-based, mouse. Particulars: 1.0 mm; compared to control cells. Here is the method:
FIGS. 3A-1, 3A-2 and 3B: Neural Cell Adhesion Molecule (NCAM) immunofluorescence in neuro-2a neuroblastoma cells. […] Panel B. Neuroblastoma cells were cultured for 48 hours in the presence of increasing concentrations of 2-n-butyl-4-pentynoic acid and 2-n-pentyl-4-pentynoic acid. They were then fixed and prepared for staining with rabbit anti-NCAM antibody. A second anti-rabbit antibody conjugated to rhodamine was incubated with the cells to detect bound anti-NCAM antibody. […] Immunofluorescence is expressed as mean +/− SEM.
Cells were seeded in 24-well plates at a density of 1×10^4 cells/cm^2. Following a recovery period 24 h they were exposed for an additional 48 h to the drug under investigation. […] The cells were again washed three times with phosphate buffered saline pH 7.4 and were then mounted using Citifluor (Agar Scientific) containing a fluorescence enhancer. Fluorescence of rhodamine was visualized using an excitatory wavelength of 535 nm (Leica filter block N2.1) on a Leitz DMRB fluorescence microscope. Fluorescence intensity was examined at points of cell-cell contact using a Quantimet 500 Image Analysis System. Fluorescence intensity is expressed as grey level at points of cell contact relative to that observed in the control.

Series [6] has as its system neural derived cell proliferation. Conditions: literature; cited from earlier work.
The conditions of series [7]: experimental models; literature; cited from earlier work.
For series [8] the following is noted: human; literature; cited from earlier work.

`C#CCC(CC(C)C)C(=O)O` (stereo not drawn): in series [1], the “antiproliferative potency / activity” value is “low”. For the same compound, the prodifferentiative potency result in series [2] was “low”. For the same compound, the teratogenic potency result in series [3] is given as “low”.
Turning to `C#CC[C@H](CCC)C(=O)O` [S-2-n-propyl-4-pentynoic acid], the “teratogenic potency of S-enantiomer relative to R-enantiomer” value in series [4] was “significantly greater”.
On to `C#CCC(CCCCC)C(=O)O` (stereo not drawn) [2-n-pentyl-4-pentynoic acid], for which the “immunofluorescence directed against NCAM” value in series [5] is listed as “increased immunofluorescence”. In addition, in series [2] (0.3 mM, 0.5 mM), the neurite outgrowth result was “Induction of neurite outgrowth”. Moreover, the teratogenic potency result in series [3] is given as “most potent”.
Turning to `C#CCC(CCCC)C(=O)O` (stereo not drawn) [2-n-butyl-4-pentynoic acid], the neurite outgrowth result in series [2] (1.0 mM, 2 mM) is given as “Induction of neurite outgrowth”. Further, the teratogenic potency result in series [3] is recorded as “most potent”.
For the compound `C#CCC(CCC)C(=O)O` (stereo not drawn) [2-n-propyl-4-pentynoic acid], the “teratogenic potency of S-enantiomer relative to R-enantiomer” value in series [4] is reported as “more potent”. Also, in series [3], the teratogenic potency entry was “most potent”.
As to `CCCC(CCC)C(N)=O` [valpromide], the teratogenic activities result in series [4] is given as “non-teratogenic”. In series [6], the antiproliferative action entry is “not antiproliferative”.
In the case of `CC/C=C(\CCC)C(=O)O` [IV], the teratogenic activities entry in series [4] is on record as “very low or undetectable”. Moreover, the anticonvulsant properties entry in series [7] is on record as “good”. Further, in series [1], the “antiproliferative potency / activity” value is given as “lowers, but does not abolish”. Moreover, in series [2], the cellular neurotrophic activity entry is given as “lowers, but does not abolish”.
For the compound `CC#CCC(CCC)C(=O)O` (stereo not drawn) [VI], in series [4], the teratogenic activities result is recorded as “very low or undetectable”. Further, in series [7], the anticonvulsant properties entry was “good”. The “antiproliferative potency / activity” value in series [1] is recorded as “lowers, but does not abolish”. Moreover, the cellular neurotrophic activity entry in series [2] is “lowers, but does not abolish”.
Take `C=CCC(CCC)C(=O)O` (stereo not drawn) [Example 4-en-VPA, 2-n-propyl-4-pentenoic acid]: the “teratogenic potency of S-enantiomer relative to R-enantiomer” value in series [4] is “more potent”.
With `C#CCC(CCCCCC)C(=O)O` (racemic) [2-n-hexyl-4-pentynoic acid, (±)-2-(2-propinyl)-Octanoic acid], the teratogenic potency entry in series [3] is on record as “most potent”.
On to `C/C=C\CC(CCC)C(=O)O` (stereo not drawn) [V], for which the “antiproliferative potency / activity” value in series [1] is given as “lowers, but does not abolish”. In addition, the cellular neurotrophic activity entry in series [2] is on record as “lowers, but does not abolish”.
On to `CCCC(CCC)C(=O)O` [valproate, valproic acid], for which the “transfer into the central nervous system” value in series [8] is on record as “very limited”. For the same compound, the antiproliferative action result in series [6] is “potently inhibit”.
